Format in all cases: functional, cell-based
Assay [1] has as its system HeLa. As to the kind of experiment: Induction of apoptosis in human HeLa cells assessed as cytochrome C release from mitochondria at 100 uM after 24 hrs by confocal microscopy.
The subject of assay [2] is HeLa. As to the kind of experiment: Induction of apoptosis in human HeLa cells assessed as increase in pro-apoptotic Bax protein at 100 uM after 24 hrs by Western blot. For orientation: In western blotting, separated proteins are transferred to a membrane and probed.
Assay [3] relates to HeLa. As to the kind of experiment: Induction of apoptosis in human HeLa cells assessed as PARP cleavage at 100 uM by Western blot.
Assay [4] deals with HeLa. Kind of assay: Induction of apoptosis in human HeLa cells assessed as fragmented apoptotic bodies at 100 uM after 24 hrs by DAPI staining.
Assay [5] has as its system HeLa. Kind of assay: Induction of apoptosis in human HeLa cells at 100 uM after 48 hrs by TUNEL assay.
Assay [6] relates to HeLa. As to the kind of experiment: Induction of apoptosis in human HeLa cells assessed as caspase-3 activation at 100 uM by Western blot.
For assay [7], the system named is HeLa. As to the kind of experiment: Induction of apoptosis in human HeLa cells assessed as caspase-8 activation at 100 uM by Western blot.
Assay [8] relates to HeLa. As to the kind of experiment: Antiproliferative activity against human HeLa cells after 48 hrs by MTT assay. On the technique in general: Tetrazolium dyes change colour on reduction, which living cells bring about.
Assay [9] relates to HeLa. Kind of assay: Induction of apoptosis in human HeLa cells assessed as increase in pro-apoptotic Bak protein at 100 uM after 24 hrs by Western blot.
Assay [10] concerns HeLa. As to the kind of experiment: Induction of apoptosis in human HeLa cells at 100 uM after 24 hrs by TUNEL assay.
Assay [11] deals with HeLa. Kind of assay: Induction of apoptosis in human HeLa cells assessed as caspase-9 activation at 100 uM by Western blot.

The structures appear in SMILES notation. Activity calls are given as the source filed them. The rule behind the calls is not given here.

In general, IC50 refers to the concentration that inhibits the measured activity by half.

Regarding `C=CC1CCC2(O)C(C=C)(C1)CC1(O)CC(O)C=CC12O` (configuration not stated), the outcome with HeLa [1], with HeLa [2], with HeLa [3], in the assay with HeLa [4], in the assay on HeLa [5] and with HeLa [6] was Active. In addition, the result in the assay on HeLa [7], with HeLa [9], with HeLa [10] and with HeLa [11] was Active. For the same molecule, the Activity entry with HeLa [8] is “Dose-dependent effect”. In addition, the IC50 in the assay on HeLa [8] was 81.5 µM.

For the origin of these results see ChEMBL document CHEMBL1143263, “HY253, a novel compound isolated from Aralia continentalis, induces apoptosis via cytochrome c-mediated intrinsic pathway in HeLa cells” (Bioorg Med Chem Lett, 2009).
